ChEMBL document CHEMBL1201862, “PubChem BioAssay data set” (2004)
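Assay format: 96-well plates, 48-hour exposure. GI50 = concentration required for 50% inhibition of growth.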 Calls of active or inactive are those of the source. Rule as the data show it: active = GI50 up to about 1.1 µM and inactive = higher.

Assays:
Test in all cases: DTP human tumour cell line panel, 48 h
786-0 = test system: 786-0
A549 = test system: A549
BT-549 = test system: BT-549
CAKI-1 = test system: CAKI-1
CCRF-CEM = test system: CCRF-CEM
HCC 2998 = test system: HCC 2998
HOP-62 = test system: HOP-62
HOP-92 = test system: HOP-92
Hs-578T = test system: Hs-578T
K562 = test system: K562
M14 = test system: M14
MDA-MB-231 = test system: MDA-MB-231
MDA-MB-435 = test system: MDA-MB-435
NCI-H460 = test system: NCI-H460
SF-295 = test system: SF-295
SNB-75 = test system: SNB-75
SR = test system: SR
UACC-62 = test system: UACC-62
HT-29 = test system: HT-29
RXF 393 = test system: RXF 393

CNn1c(C)n[nH]c1=O
GI50 (786-0): > 100 µM (inactive)
GI50 (A549): > 100 µM (inactive)
GI50 (BT-549): > 100 µM (inactive)
GI50 (CAKI-1): > 100 µM (inactive)
GI50 (CCRF-CEM): > 100 µM (inactive)
GI50 (HCC 2998): > 100 µM (inactive)
GI50 (HOP-62): > 100 µM (inactive)
GI50 (HOP-92): > 100 µM (inactive)
GI50 (Hs-578T): > 100 µM (inactive)
GI50 (K562): > 100 µM (inactive)
GI50 (M14): > 100 µM (inactive)
GI50 (MDA-MB-231): > 100 µM (inactive)
GI50 (MDA-MB-435): > 100 µM (inactive)
GI50 (NCI-H460): > 100 µM (inactive)
GI50 (SF-295): > 100 µM (inactive)
GI50 (SNB-75): 50.8 µM (inactive)
GI50 (SR): > 100 µM (inactive)
GI50 (UACC-62): > 100 µM (inactive)

C=C1CC(C#N)(C#N)[C@@H]2CC3CCCC3[C@H]12.C=C1CC(C#N)(C#N)[C@H]2C3CCCC3C[C@@H]12 (stereo partly specified)
GI50 (786-0): 10.5 µM (inactive)
GI50 (A549): 10 µM (inactive)
GI50 (BT-549): 25.9 µM (inactive)
GI50 (CCRF-CEM): 10 µM (inactive)
GI50 (HOP-62): 10 µM (inactive)
GI50 (HOP-92): 11.3 µM (inactive)
GI50 (HT-29): 14 µM (inactive)
GI50 (Hs-578T): 35.9 µM (inactive)
GI50 (K562): 16.8 µM (inactive)
GI50 (M14): 15.6 µM (inactive)
GI50 (MDA-MB-231): 22 µM (inactive)
GI50 (MDA-MB-435): 19.3 µM (inactive)
GI50 (NCI-H460): 10 µM (inactive)
GI50 (RXF 393): 22.1 µM (inactive)
GI50 (SF-295): 18.3 µM (inactive)
GI50 (SR): 14.6 µM (inactive)
GI50 (UACC-62): 25.9 µM (inactive)

CCOC(=O)/C(C(N)=O)=C(O)/C(O)=C/C(=O)c1ccc(Cl)cc1
GI50 (786-0): 17.2 µM (inactive)
GI50 (A549): 32.4 µM (inactive)
GI50 (BT-549): 18 µM (inactive)
GI50 (CAKI-1): 24.1 µM (inactive)
GI50 (CCRF-CEM): 4.53 µM (inactive)
GI50 (HOP-62): 21.9 µM (inactive)
GI50 (HOP-92): 21.8 µM (inactive)
GI50 (HT-29): 21.8 µM (inactive)
GI50 (Hs-578T): 42.1 µM (inactive)
GI50 (M14): 21.2 µM (inactive)
GI50 (MDA-MB-231): 17.3 µM (inactive)
GI50 (MDA-MB-435): 23.1 µM (inactive)
GI50 (NCI-H460): 16 µM (inactive)
GI50 (RXF 393): 15.9 µM (inactive)
GI50 (SF-295): 29.2 µM (inactive)
GI50 (SNB-75): 12.8 µM (inactive)
GI50 (SR): 21.7 µM (inactive)
GI50 (UACC-62): 20.6 µM (inactive)

C=CC(=O)N1C/C(=C\c2ccc([N+](=O)[O-])cc2)C(=O)/C(=C/c2ccc([N+](=O)[O-])cc2)C1
GI50 (786-0): < 0.0203 µM (active)
GI50 (A549): 0.427 µM (active)
GI50 (BT-549): 0.194 µM (active)
GI50 (CAKI-1): 0.128 µM (active)
GI50 (CCRF-CEM): 0.0565 µM (active)
GI50 (HCC 2998): 0.161 µM (active)
GI50 (HOP-62): 0.222 µM (active)
GI50 (HOP-92): 0.811 µM (active)
GI50 (HT-29): < 0.0176 µM (active)
GI50 (Hs-578T): < 0.0422 µM (active)
GI50 (K562): 0.0982 µM (active)
GI50 (M14): 0.19 µM (active)
GI50 (MDA-MB-231): 0.161 µM (active)
GI50 (MDA-MB-435): 0.254 µM (active)
GI50 (NCI-H460): 0.147 µM (active)
GI50 (RXF 393): 0.142 µM (active)
GI50 (SF-295): 0.208 µM (active)
GI50 (SR): 0.289 µM (active)
GI50 (UACC-62): 0.21 µM (active)

CCOC(=O)C1=C(c2ccccc2)N(C)c2ccccc2S1
GI50 (786-0): 31.8 µM (inactive)
GI50 (A549): 35.6 µM (inactive)
GI50 (BT-549): 21.5 µM (inactive)
GI50 (CAKI-1): 31 µM (inactive)
GI50 (CCRF-CEM): 31 µM (inactive)
GI50 (HOP-62): 36.4 µM (inactive)
GI50 (HOP-92): 44.5 µM (inactive)
GI50 (HT-29): 17.4 µM (inactive)
GI50 (Hs-578T): 23.3 µM (inactive)
GI50 (K562): 36.8 µM (inactive)
GI50 (M14): 34.5 µM (inactive)
GI50 (MDA-MB-231): 29.6 µM (inactive)
GI50 (MDA-MB-435): 33.2 µM (inactive)
GI50 (NCI-H460): 24.7 µM (inactive)
GI50 (SF-295): 35.8 µM (inactive)
GI50 (SNB-75): 38.6 µM (inactive)
GI50 (SR): 31.6 µM (inactive)
GI50 (UACC-62): 19 µM (inactive)

Cc1n[nH]c(C(F)(F)F)c1/N=N/N(C)C
GI50 (786-0): 1.24 µM (inactive)
GI50 (A549): 18.4 µM (inactive)
GI50 (BT-549): 11.7 µM (inactive)
GI50 (CAKI-1): 1.64 µM (inactive)
GI50 (CCRF-CEM): 2.63 µM (inactive)
GI50 (HCC 2998): 14 µM (inactive)
GI50 (HOP-62): 10 µM (inactive)
GI50 (HOP-92): 8.32 µM (inactive)
GI50 (HT-29): 4.98 µM (inactive)
GI50 (Hs-578T): 15.6 µM (inactive)
GI50 (K562): 2.93 µM (inactive)
GI50 (M14): 14.7 µM (inactive)
GI50 (MDA-MB-231): 11.8 µM (inactive)
GI50 (MDA-MB-435): 14.5 µM (inactive)
GI50 (NCI-H460): 10.5 µM (inactive)
GI50 (RXF 393): 13 µM (inactive)
GI50 (SF-295): 12.1 µM (inactive)
GI50 (SR): 4.47 µM (inactive)
GI50 (UACC-62): 6.81 µM (inactive)

Cc1cccc(/C=N/NC(=S)N(C)CCc2ccccn2)n1
GI50 (786-0): 0.281 µM (active)
GI50 (A549): 0.417 µM (active)
GI50 (BT-549): 0.857 µM (active)
GI50 (CAKI-1): 0.421 µM (active)
GI50 (CCRF-CEM): 0.0288 µM (active)
GI50 (HCC 2998): 0.453 µM (active)
GI50 (HOP-62): 0.32 µM (active)
GI50 (HOP-92): 0.38 µM (active)
GI50 (HT-29): 0.265 µM (active)
GI50 (Hs-578T): > 33 µM (inactive)
GI50 (K562): 0.163 µM (active)
GI50 (M14): 0.329 µM (active)
GI50 (MDA-MB-231): 1.16 µM (inactive)
GI50 (MDA-MB-435): 0.521 µM (active)
GI50 (NCI-H460): 0.267 µM (active)
GI50 (SF-295): 0.383 µM (active)
GI50 (SNB-75): 0.483 µM (active)
GI50 (SR): 0.246 µM (active)
GI50 (UACC-62): 0.287 µM (active)

CSC1NC(c2ccc(Cl)cc2)=C(C#N)C(=O)N1C1OCC(OC(C)=O)C(OC(C)=O)C1OC(C)=O (stereo unspecified)
GI50 (786-0): > 100 µM (inactive)
GI50 (BT-549): > 100 µM (inactive)
GI50 (CAKI-1): > 100 µM (inactive)
GI50 (HCC 2998): > 100 µM (inactive)
GI50 (HOP-62): > 100 µM (inactive)
GI50 (HOP-92): > 100 µM (inactive)
GI50 (HT-29): > 100 µM (inactive)
GI50 (Hs-578T): > 100 µM (inactive)
GI50 (K562): > 100 µM (inactive)
GI50 (M14): > 100 µM (inactive)
GI50 (MDA-MB-231): > 100 µM (inactive)
GI50 (MDA-MB-435): > 100 µM (inactive)
GI50 (NCI-H460): > 100 µM (inactive)
GI50 (SF-295): > 100 µM (inactive)
GI50 (SNB-75): > 100 µM (inactive)
GI50 (SR): 24.5 µM (inactive)
GI50 (UACC-62): > 100 µM (inactive)

O=C(OC(=C(c1ccccc1)c1ccccc1)N1CCCC1=S)C(c1ccccc1)c1ccccc1
GI50 (786-0): > 10 µM (inactive)
GI50 (A549): 4.67 µM (inactive)
GI50 (BT-549): 5.05 µM (inactive)
GI50 (CAKI-1): > 10 µM (inactive)
GI50 (CCRF-CEM): 3.94 µM (inactive)
GI50 (HCC 2998): 9.44 µM (inactive)
GI50 (HOP-62): > 10 µM (inactive)
GI50 (HT-29): 4.42 µM (inactive)
GI50 (Hs-578T): > 10 µM (inactive)
GI50 (K562): 3.88 µM (inactive)
GI50 (M14): > 10 µM (inactive)
GI50 (MDA-MB-231): 7.82 µM (inactive)
GI50 (MDA-MB-435): > 10 µM (inactive)
GI50 (NCI-H460): 3.58 µM (inactive)
GI50 (RXF 393): > 10 µM (inactive)
GI50 (SF-295): > 10 µM (inactive)
GI50 (SNB-75): 4.91 µM (inactive)
GI50 (SR): > 10 µM (inactive)
GI50 (UACC-62): > 10 µM (inactive)

COc1cc(C2C(C#N)=C(N)OC3=C2CCS(=O)(=O)c2ccc(C)cc23)cc(OC)c1OC (stereo unspecified)
GI50 (786-0): > 100 µM (inactive)
GI50 (A549): > 100 µM (inactive)
GI50 (BT-549): > 100 µM (inactive)
GI50 (CAKI-1): > 100 µM (inactive)
GI50 (CCRF-CEM): > 100 µM (inactive)
GI50 (HCC 2998): > 100 µM (inactive)
GI50 (HOP-62): > 100 µM (inactive)
GI50 (HOP-92): > 100 µM (inactive)
GI50 (HT-29): > 100 µM (inactive)
GI50 (Hs-578T): > 100 µM (inactive)
GI50 (K562): > 100 µM (inactive)
GI50 (M14): > 100 µM (inactive)
GI50 (MDA-MB-231): > 100 µM (inactive)
GI50 (MDA-MB-435): > 100 µM (inactive)
GI50 (NCI-H460): > 100 µM (inactive)
GI50 (SNB-75): > 100 µM (inactive)
GI50 (SR): 47.8 µM (inactive)
GI50 (UACC-62): > 100 µM (inactive)

CC(Br)C(=O)NC(CO)C(=O)O (stereo unspecified)
GI50 (786-0): > 100 µM (inactive)
GI50 (A549): > 100 µM (inactive)
GI50 (BT-549): > 100 µM (inactive)
GI50 (CAKI-1): > 100 µM (inactive)
GI50 (CCRF-CEM): > 100 µM (inactive)
GI50 (HOP-62): > 100 µM (inactive)
GI50 (HOP-92): > 100 µM (inactive)
GI50 (HT-29): > 100 µM (inactive)
GI50 (Hs-578T): > 100 µM (inactive)
GI50 (K562): > 100 µM (inactive)
GI50 (M14): > 100 µM (inactive)
GI50 (MDA-MB-231): > 100 µM (inactive)
GI50 (MDA-MB-435): > 100 µM (inactive)
GI50 (NCI-H460): > 100 µM (inactive)
GI50 (RXF 393): > 100 µM (inactive)
GI50 (SF-295): > 100 µM (inactive)
GI50 (SNB-75): > 100 µM (inactive)
GI50 (SR): > 100 µM (inactive)
GI50 (UACC-62): > 100 µM (inactive)
